# Test results as given in patent publication EP0011400A1, “An aminoglycosidic antibiotic salt” (priority 1978, dated 1980).
# Counter-ions that a name gives are not always drawn.
# Assays:
# Male Hartley guinea pigs [1] = test: Example 8: toxicity of tobramycin and bekanamycin salts on intramuscular injection (deaths, pinna reflex); type: in vivo; conditions: for Pinna Reflex Lost: * including dead cases; for Number died/ Number tested: guinea pigs, intramuscular
# Protocol: The second group was injected with a solution of tobramycin sulfate in water for injection in an equal dose. […] After injection with the final dose, the pinna reflex of each subject guinea pig to a pure tone having a frequency of 15,000 Hz was determined. […] Both group were then subjected to determination of their pinna reflex to a 15,000^-Hz pure tone.
# Male Hartley guinea pigs [2] = test: Example 7: toxicity of dibekacin salts on intramuscular injection for 21 days (deaths, pinna reflex, BUN); type: in vivo; conditions: for Number of guinea pigs which lost pinna reflex 10days / Number of guinea pigs which lost pinna reflex 14days / Number of guinea pigs which lost pinna reflex 17days / Number of guinea pigs which lost pinna reflex 21days: 180 mg (as a free base)/kg/day intramuscular, 20,000 Hz pure tone; for Number of guinea pigs which lost pinna reflex 21days: * including dead cases; for Number died/ Number tested: guinea pigs, intramuscular, 21 consecutive days; for Number died/ Number tested / BUN: 180 mg (as a free base)/kg/day; for BUN: sera, 24 hours after final dose; for Number of guinea pigs which lost pinna reflex 21days / BUN: 21 days
# Protocol: The second group was injected with an equal dose of a solution of dibekacin sulfate in water for injection. […] During the intramuscu]ar injection, the pinna reflex of each subject guinea pig to a pure tone having a frequency of 20,000 Hz was determined. Twenty-four hours after the injection with the final dose, the level of BUN in sera was measured.
# [3] = test system: Pseudomonas aeruginosa E-2; test: Example 10: survival of mice infected intraperitoneally; type: in vivo; conditions: ICR-JCL mice, intramuscular; for Percentage Survival (%) Dosage 0.0625 mg: 0.0625 mg (as a free base)/mouse; for Percentage Survival (%) Dosage 0.0625 mg / Percentage Survival (%) Dosage 0.25 mg / Percentage Survival (%) Dosage 1 mg: one week after the injection; for Percentage Survival (%) Dosage 1 mg: 1 mg (as a free base)/mouse; for ED50: Pseudomonas aeruginosa, E2, im, 168 h, calculated by Ritchfield-Wilcoxon technique, the two values not significantly different
# Protocol: The second group was injected with a solutio of dibekacin sulfate in sterile physiological saline solution in the above indicated doses. […] The percentage survival of each group was checked one week after the injection.
# [4] = Solubility of the salt powder in water and organic solvents; type: physicochemical
# Male Hartley guinea pigs [5] = test: Example 9: toxicity of kanamycin A salts on intramuscular injection for 14 days (deaths, pinna reflex, BUN); type: in vivo; conditions: 400 mg (as a free base)/kg/day, 14 consecutive days
# Protocol: The second group was injected with a solution of kanamycin A sulfate in water for injection in an equal dose. The third group was injected with a solution of a mixture of kanamycin A sulfate and potassium salt of D-glucaro-1,5-lactam (in a molar ratio of […]) in water for injection in an eaual dose.
# [6] = pH of an aqueous solution of the salt; type: physicochemical
# Male Hartley guinea pigs [7] = test: Example 6: toxicity of gentamicin salts on intramuscular injection for 14 days (deaths, pinna reflex, BUN, CRE); type: in vivo; conditions: 100 mg (as a free base)/kg/day; for CRE: creatine in sera; for CRE / BUN: 24 hours after the pinna reflex determination; for Number died/ Number tested: 14 consecutive days; for BUN: sera
# Protocol: The amount of the test compounds administered was calculated on the basis of the free base (i.e., free gentamicin). […] The second group was injected with an equal dose of a solution of gentamicin sulfate in water for injection. […] After injection with the final dose, each group was subjected to a pure tone having a frequency of 20,000 Hz to determine the pinna reflex of the subject guinea pigs. Twenty-four hours after the determination, the levels of blood urea nitrogen (BUN) and creatine (CRE) in sera were measured.
# Male Hartley guinea pigs [8] = test: Example 11: pinna reflex after intramuscular injection of gentamicin salts for 21 days; conditions: 80 mg (as a free base)/kg/day, 20,000 Hz pure tone after final dose
# Protocol: Male Hartley guinea pigs weighing 300 g on average were used as the test animals in three groups each consisting of 6 guinea pigs which were subjected to intramuscular injection of the following substances for 21 consecutive days. The first group was injected with a solution of the salt of gentamicin and D-glucaro-1,5-lactam in water for injection in a dose of 80 mg (as a free base)/kg/day. The second group was injected with a solution of gentamicin sulfate in water for injection in an equal dose. The third group was a control which was injected with distilled water.
# [9] = 250 mg (as a free base)/kg/day, 14 days, 15,000 Hz pure tone
# [10] = 250 mg (as a free base)/kg/day, 14 consecutive days
# [11] = 120 mg (as a free base)/kg/day, 16 days, 15,000 Hz pure tone after final dose
# [12] = guinea pigs, intramuscular, 14 days, 20,000 Hz pure tone after final dose
compound,measurement,setting,value
"NC[C@H]1O[C@H](O[C@H]2[C@H](O)[C@@H](O[C@H]3O[C@H](CO)[C@@H](O)[C@H](N)[C@H]3O)[C@H](N)C[C@@H]2N)[C@H](N)[C@@H](O)[C@@H]1O [Bcanamycin sulfate, bekanamycin sulfate]",Pinna Reflex Dull,Male Hartley guinea pigs [1]; [9],1/4
same,Pinna Reflex Lost,Male Hartley guinea pigs [1]; [9],3/4*
same,Number died/ Number tested,Male Hartley guinea pigs [1]; [10],2/6
"NCC1CCC(N)C(OC2C(N)CC(N)C(OC3OC(CO)C(O)C(N)C3O)C2O)O1 (stereo not shown) [Dibekacin sulfate, dibekacin sulfate, reference compound]",Number of guinea pigs which lost pinna reflex 10days,Male Hartley guinea pigs [2],0/6
same,Number of guinea pigs which lost pinna reflex 14days,Male Hartley guinea pigs [2],3/6
same,Number of guinea pigs which lost pinna reflex 17days,Male Hartley guinea pigs [2],3/6
same,Number of guinea pigs which lost pinna reflex 21days,Male Hartley guinea pigs [2],5/6*
same,Number died/ Number tested,Male Hartley guinea pigs [2],1/6
same,BUN,Male Hartley guinea pigs [2],41.8 ± 26.9 mg/dL
same,Percentage Survival (%) Dosage 0.0625 mg,[3],0%
same,Percentage Survival (%) Dosage 0.25 mg,[3],30%
same,Percentage Survival (%) Dosage 1 mg,[3],100%
same,ED50,[3],15.7 mg/kg
"NC[C@H]1O[C@H](O[C@H]2[C@H](O)[C@@H](O[C@H]3O[C@H](CO)[C@@H](O)[C@H](N)[C@H]3O)[C@H](N)C[C@@H]2N)[C@H](N)[C@@H](O)[C@@H]1O [Glucarolactam salt of bekanamycin, Salt of bekanamycin and D-glucaro-1,5-lactam]","solubility in ethanol, acetone, ethyl acetate and chloroform",[4],very slightly soluble
same,solubility in water,[4],freely soluble
same,Pinna Reflex Dull,Male Hartley guinea pigs [1]; [9],3/6
same,Pinna Reflex Lost,Male Hartley guinea pigs [1]; [9],3/6
same,Number died/ Number tested,Male Hartley guinea pigs [1]; [10],0/6
"NC[C@@H]1CC[C@@H](N)[C@@H](O[C@H]2[C@H](O)[C@@H](O[C@H]3O[C@H](CO)[C@@H](O)[C@H](N)[C@H]3O)[C@H](N)C[C@@H]2N)O1 [Glucarolactam salt of dibekacin, Salt of dibekacin and D-glucaro-1,5-lactam]","solubility in ethanol, acetone, ethyl acetate and chloroform",[4],very slightly soluble
same,solubility in methanol,[4],sparingly soluble
same,solubility in water,[4],freely soluble
same,Number of guinea pigs which lost pinna reflex 10days,Male Hartley guinea pigs [2],0/6
same,Number of guinea pigs which lost pinna reflex 14days,Male Hartley guinea pigs [2],0/6
same,Number of guinea pigs which lost pinna reflex 17days,Male Hartley guinea pigs [2],0/6
same,Number of guinea pigs which lost pinna reflex 21days,Male Hartley guinea pigs [2],3/6
same,Number died/ Number tested,Male Hartley guinea pigs [2],0/6
same,BUN,Male Hartley guinea pigs [2],35.7 ± 13.3 mg/dL
same,Percentage Survival (%) Dosage 0.0625 mg,[3],0%
same,Percentage Survival (%) Dosage 0.25 mg,[3],20%
same,Percentage Survival (%) Dosage 1 mg,[3],100%
same,ED50,[3],19.1 mg/kg
"NC[C@H]1O[C@H](O[C@H]2[C@H](O)[C@@H](O[C@H]3O[C@H](CO)[C@@H](O)[C@H](N)[C@H]3O)[C@H](N)C[C@@H]2N)[C@H](O)[C@@H](O)[C@@H]1O [Glucarolactam salt of kanamycin, Salt of kanamycin A and D-glucaro-1,5-lactam]","solubility in ethanol, acetone, ethyl acetate and chloroform",[4],very slightly soluble
same,solubility in water,[4],freely soluble
same,Number died/ Number tested,Male Hartley guinea pigs [5],0/6
"NC[C@H]1O[C@H](O[C@H]2[C@H](O)[C@@H](O[C@H]3O[C@H](CO)[C@@H](O)[C@H](N)[C@H]3O)[C@H](N)C[C@@H]2N)[C@H](O)[C@@H](O)[C@@H]1O [Kanamycin sulfate, kanamycin A sulfate, reference compound]",Number died/ Number tested,Male Hartley guinea pigs [5],0/6
"NCC1OC(OC2C(N)CC(N)C(OC3OC(CO)C(O)C(N)C3O)C2O)C(N)CC1O (stereo not shown) [Tobramycin sulfate, tobramycin sulfate]",Pinna Reflex Dull,Male Hartley guinea pigs [1]; [11],2/9
same,Pinna Reflex Normal,Male Hartley guinea pigs [1]; [11],7/9
same,Number died/ Number tested,"Male Hartley guinea pigs [1]; 120 mg (as a free base)/kg/day, 16 consecutive days",0/9
"Salt of gentamicin and D-glucaro-1,5-lactam [Glucarolactam salt of gentamicin]","solubility in ethanol, acetone, ethyl acetate and chloroform",[4],very slightly soluble
same,solubility in methanol,[4],sparingly soluble
same,solubility in water,[4],freely soluble
same,pH of an aqueous solution of the salt,[6],6.7
same,CRE,Male Hartley guinea pigs [7]; 14 days,1.20±0.51
same,Number died/ Number tested,"Male Hartley guinea pigs [7]; guinea pigs, intramuscular",2/9
same,Pinna Reflex Lost,Male Hartley guinea pigs [7]; [12],1/7
same,Pinna Reflex Normal,Male Hartley guinea pigs [7]; [12],6/7
same,BUN,Male Hartley guinea pigs [7]; 14 days,64.6 ± 43.97 mg/dL
same,Pinna Reflex Dull,Male Hartley guinea pigs [8],2/6
same,Pinna Reflex Normal,Male Hartley guinea pigs [8],3/6
same,Pinna Reflex Lost,Male Hartley guinea pigs [8]; * including one guinea pig dead on the 21th day,1/6
gentamicin sulfate [reference compound],CRE,Male Hartley guinea pigs [7]; 14 days,1.80±0.57
same,Number died/ Number tested,"Male Hartley guinea pigs [7]; guinea pigs, intramuscular",7/9
same,Pinna Reflex Dull,Male Hartley guinea pigs [7]; [12],2/5
same,Pinna Reflex Lost,Male Hartley guinea pigs [7]; [12],3/5
same,BUN,Male Hartley guinea pigs [7]; 14 days,92.3 ± 50.42 mg/dL
